From ChEMBL document CHEMBL1136440, “Design and synthesis of novel RXR-selective modulators with improved pharmacological profile” (Bioorg Med Chem Lett, 2003) come the findings set out here.

pEC50, pIC50, pKi: −log10 of the molar value.

As a reminder, the pIC50 is the negative decadic logarithm of the IC50, by convention in mol/L. Broadly, the pKi is the negative decadic logarithm of the Ki, by convention in mol/L. As a reminder, the Tmax is the time from dosing to the highest level. In general, AUC(0-t) refers to the area under the concentration-time curve up to a stated or last time point. Low readings indicate less exposure, high ones more exposure. By pEC50 is commonly meant −log10 of the EC50, conventionally taken in molar units. Lower therefore signals a high EC50.

The target of data set [1] is T1, Retinoic acid receptor RXR-alpha (Homo sapiens, UniProt P19793).
T1 sequence (P19793 whole entry): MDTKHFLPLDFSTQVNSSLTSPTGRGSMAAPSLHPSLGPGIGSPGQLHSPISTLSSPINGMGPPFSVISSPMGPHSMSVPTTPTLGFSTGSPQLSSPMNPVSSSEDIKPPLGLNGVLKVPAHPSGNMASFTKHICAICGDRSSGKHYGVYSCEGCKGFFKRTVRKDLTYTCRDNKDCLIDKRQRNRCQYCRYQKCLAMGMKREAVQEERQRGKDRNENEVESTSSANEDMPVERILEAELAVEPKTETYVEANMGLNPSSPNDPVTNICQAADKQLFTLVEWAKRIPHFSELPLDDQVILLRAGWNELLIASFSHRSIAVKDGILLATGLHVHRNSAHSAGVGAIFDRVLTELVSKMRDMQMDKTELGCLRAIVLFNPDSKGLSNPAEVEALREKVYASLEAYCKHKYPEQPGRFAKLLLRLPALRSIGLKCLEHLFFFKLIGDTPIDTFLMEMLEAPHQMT
In words: In vitro antagonist activity against RXR alpha in CV-1 cells. Type of data set: functional, cell-based, Cercopithecidae.

Data set [2] has as its target T2, Retinoic acid receptor RXR-gamma (Homo sapiens, UniProt P48443).
T2 sequence (P48443 whole entry): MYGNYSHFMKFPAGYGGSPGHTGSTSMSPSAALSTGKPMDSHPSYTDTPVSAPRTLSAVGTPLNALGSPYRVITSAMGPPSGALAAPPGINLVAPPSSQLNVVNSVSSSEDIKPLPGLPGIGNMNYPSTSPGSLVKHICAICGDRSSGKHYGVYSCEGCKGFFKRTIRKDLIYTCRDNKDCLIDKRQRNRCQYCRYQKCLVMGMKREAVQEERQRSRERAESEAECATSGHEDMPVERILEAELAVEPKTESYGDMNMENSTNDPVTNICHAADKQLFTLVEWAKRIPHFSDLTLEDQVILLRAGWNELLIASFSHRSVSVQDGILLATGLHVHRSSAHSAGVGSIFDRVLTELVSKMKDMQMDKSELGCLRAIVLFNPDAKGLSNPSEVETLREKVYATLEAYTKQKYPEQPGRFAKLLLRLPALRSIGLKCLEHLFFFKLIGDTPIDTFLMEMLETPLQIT
In words: Binding affinity against RXR gamma receptor using [3H]9-cis-RA as radioligand in CV-1 cells. It counts as cell-based, Cercopithecidae.

A short description of data set [3]: Tmax value in IRC mice. Conditions: mouse, in vivo. Type of data set: ADME, organism-based.
The nature of data set [4]: Area under curve at 0-8 hr in IRC mice after peroral administration. It counts as ADME, organism-based. On the set-up: time < 8 hr, route oral. The note with it: mouse, in vivo, po.
The target of data set [5] is T3, Retinoic acid receptor alpha (Homo sapiens) (UniProt P10276).
T3 sequence (whole entry): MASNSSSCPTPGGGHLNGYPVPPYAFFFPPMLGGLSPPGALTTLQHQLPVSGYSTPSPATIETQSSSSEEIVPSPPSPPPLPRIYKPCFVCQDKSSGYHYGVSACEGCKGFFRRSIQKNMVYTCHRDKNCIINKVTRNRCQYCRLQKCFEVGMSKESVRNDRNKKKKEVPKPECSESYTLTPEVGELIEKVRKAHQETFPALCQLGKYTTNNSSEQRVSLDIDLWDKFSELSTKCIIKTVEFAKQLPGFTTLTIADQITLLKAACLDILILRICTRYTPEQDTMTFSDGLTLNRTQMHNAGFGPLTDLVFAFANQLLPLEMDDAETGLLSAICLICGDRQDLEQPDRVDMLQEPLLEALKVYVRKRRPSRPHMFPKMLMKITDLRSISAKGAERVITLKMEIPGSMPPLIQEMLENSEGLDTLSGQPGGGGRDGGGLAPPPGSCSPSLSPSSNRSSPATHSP
In words: Agonist synergy against RAR alpha was tested along with 3 nM TTNPB. The note with it: Cercopithecidae. It counts as functional.

The target of data set [6] is T1, Retinoic acid receptor RXR-alpha. Description: biochemical.
Description: Binding affinity against RXR alpha receptor using [3H]9-cis-RA as radioligand in CV-1 cells
The target is the same in data set [7]. Description: In vitro agonistic activity against RXR alpha in CV-1 cells. It counts as functional, cell-based, Cercopithecidae.

In data set [1], `C/C(=C/C=C/C(C)=C/C(=O)O)c1cc(-c2ccccc2F)cc(C(C)C)c1OCC(F)F` had a pIC50 of 8.51. The pKi in data set [2] is 7.96; in data set [6], 8.64. Besides, the Tmax in data set [3] came out at 1 h. The same compound showed an AUC(0-t) at 8 h in data set [4] of 15.2 µg·h/mL. Also, the Synergy in data set [5] was 1.5 nM.
For the compound `CCOc1c(\C(C)=C/C=C/C(C)=C/C(=O)O)cc(C(F)(F)C(F)(F)F)cc1C(C)C`, in data set [1], the pIC50 is 8.28. In addition, the pKi in data set [2] was 8.11; in data set [6], 8.20. Moreover, the Tmax in data set [3] is 1 h. Moreover, in data set [4], the AUC(0-t) at 8 h stood at 14.4 µg·h/mL. Besides, the Synergy in data set [5] was found to be 2.8 nM. In data set [7], this compound gave a pEC50 of 7.04.
